In brackets after ≈: the same amount, converted by molar mass.

Common to all, as to experiment: Minimum inhibitory concentration, standard method of the Japan Society of Chemotherapy
Holding throughout (type): cell-based

For experiment [1], the system named is E. coli NIH JC-2 (IFO 12734). Particulars: Escherichia coli, IFO12734. How it is done: (§1) With respect to certain representative compounds among the compounds [I] of the present invention, their minimum inhibitory concentrations (MIC; μg/ml) were measured in accordance with the standard method established by the Japan Society of Chemotherapy [CHEMOTHERAPY, 29(1), 76-79 (1981)]. The results are summarized in Table 1, in which the compound numbers are as shown in examples.

The test system of experiment [2] is P. aeruginosa (IFO 3445). The following applies: Pseudomonas aeruginosa, IFO3445. As for the experimental part:
as §1

In experiment [3] the test system is S. aureus 209 P (IFO 12732). The following applies: Staphylococcus aureus, IFO12732. As for the experimental part: as §1

For orientation: MIC means the smallest concentration in the dilution series that meets the test's criterion for growth inhibition. A lower MIC goes with inhibition by little substance. As for `O=C(O)c1cn(C2COC2)c2cc(N3CCNCC3)c(F)cc2c1=O` [Compound 36], the MIC in experiment [1] came to 0.39 µg/mL (≈ 1.12 µM); in experiment [2], 3.13 µg/mL (≈ 9.01 µM); in experiment [3], 3.13 µg/mL (≈ 9.01 µM).
As for `Nc1c(F)c(N2Cc3ccccc3C2)c(F)c2c1c(=O)c(C(=O)O)cn2C1COC1` [Compound 30], the MIC in experiment [1] came out at 0.78 µg/mL (≈ 1.89 µM); in experiment [2], 3.13 µg/mL (≈ 7.57 µM); in experiment [3] it was 0.2 µg/mL (≈ 0.484 µM).
The like results for `CO[C@@H]1CN(c2c(F)c(N)c3c(=O)c(C(=O)O)cn(C4COC4)c3c2F)C[C@H]1N` (relative stereo) [Compound 86] were, in that order, 0.39 µg/mL (≈ 0.95 µM), 3.13 µg/mL (≈ 7.63 µM) and 1.56 µg/mL (≈ 3.8 µM).
The corresponding values for `CN(C)C1CCN(c2nc3c(cc2F)c(=O)c(C(=O)O)cn3C2COC2)C1` (stereo not drawn) [Compound 66] are 0.39 µg/mL (≈ 1.04 µM), 3.13 µg/mL (≈ 8.32 µM) and 3.13 µg/mL (≈ 8.32 µM).
The corresponding values for `O=C(O)c1cn(C2COC2)c2c(F)c(N3CCNCC3)c(F)cc2c1=O` [Compound 12] are 0.2 µg/mL (≈ 0.547 µM), 1.56 µg/mL (≈ 4.27 µM) and 1.56 µg/mL (≈ 4.27 µM).
For `C[C@H]1CN(c2c(F)cc3c(=O)c(C(=O)O)cn(C4COC4)c3c2F)C[C@H]1N` (relative stereo) [Compound 102], the MIC in experiment [1] came out at 0.1 µg/mL (≈ 0.264 µM); in experiment [2] it was 0.78 µg/mL (≈ 2.06 µM); in experiment [3], 0.39 µg/mL (≈ 1.03 µM).
As for `C[C@@H]1CN(c2c(F)c(N)c3c(=O)c(C(=O)O)cn(C4COC4)c3c2F)C[C@H]1N` (relative stereo) [Compound 101], the figures for the MIC in experiment [1], in experiment [2] and in experiment [3] were 0.1 µg/mL (≈ 0.254 µM), 0.78 µg/mL (≈ 1.98 µM) and 0.2 µg/mL (≈ 0.507 µM), respectively.
The corresponding values for `NC1CCN(c2cc3c(cc2F)c(=O)c(C(=O)O)cn3C2COC2)C1` (stereo not drawn) [Compound 37] are 0.39 µg/mL (≈ 1.12 µM), 1.56 µg/mL (≈ 4.49 µM) and 1.56 µg/mL (≈ 4.49 µM).
The like results for `O=C(O)c1cn(C2COC2)c2nc(N3CCCC3)c(F)cc2c1=O` [Compound 72] were, in that order, 0.39 µg/mL (≈ 1.17 µM), 3.13 µg/mL (≈ 9.39 µM) and 0.2 µg/mL (≈ 0.6 µM).
Consider `Nc1c(F)c(N2CCC(N)C2)c(F)c2c1c(=O)c(C(=O)O)cn2C1COC1` (stereo not drawn) [Compound 31], for which the MIC was determined as 0.2 µg/mL (≈ 0.526 µM) in experiment [1], 0.78 µg/mL (≈ 2.05 µM) in experiment [2] and 0.39 µg/mL (≈ 1.03 µM) in experiment [3].
The corresponding values for `Nc1c(F)c(N2CC(N)C2)c(F)c2c1c(=O)c(C(=O)O)cn2C1COC1` [Compound 49] are 0.78 µg/mL (≈ 2.13 µM), 3.13 µg/mL (≈ 8.54 µM) and 1.56 µg/mL (≈ 4.26 µM).
The corresponding values for `Nc1c(F)c(N2CCSCC2)c(F)c2c1c(=O)c(C(=O)O)cn2C1COC1` [Compound 28] are 0.78 µg/mL (≈ 1.96 µM), 6.25 µg/mL (≈ 15.7 µM) and 0.78 µg/mL (≈ 1.96 µM).
The like results for `CO[C@@H]1CN(c2nc3c(cc2F)c(=O)c(C(=O)O)cn3C2COC2)C[C@H]1N` (relative stereo) [Compound 88] were, in that order, 0.78 µg/mL (≈ 2.06 µM), 3.13 µg/mL (≈ 8.27 µM) and 6.25 µg/mL (≈ 16.5 µM).
`CCNC1CCN(c2nc3c(cc2F)c(=O)c(C(=O)O)cn3C2COC2)C1` (stereo not drawn) [Compound 69]: the figures for the MIC in experiment [1], in experiment [2] and in experiment [3] were 0.39 µg/mL (≈ 1.04 µM), 1.56 µg/mL (≈ 4.14 µM) and 3.13 µg/mL (≈ 8.32 µM), respectively.
The corresponding values for `CCNCC1CCN(c2c(F)cc3c(=O)c(C(=O)O)cn(C4COC4)c3c2OC)C1` (stereo not drawn) [Compound 79] are 1.56 µg/mL (≈ 3.72 µM), 25 µg/mL (≈ 59.6 µM) and 0.1 µg/mL (≈ 0.238 µM).
For `CCNC1CCN(c2c(F)c(N)c3c(=O)c(C(=O)O)cn(C4COC4)c3c2F)C1` (stereo not drawn) [Compound 51], the values for the MIC in experiment [1], in experiment [2] and in experiment [3] were 0.78 µg/mL (≈ 1.91 µM), 3.13 µg/mL (≈ 7.66 µM) and 1.56 µg/mL (≈ 3.82 µM), respectively.
The like results for `Nc1c(F)c(N2CCCC2)c(F)c2c1c(=O)c(C(=O)O)cn2C1COC1` [Compound 27, 5-Amino-6,8-difluoro-1-(oxetan-3-yl)-7-(pyrrolidin-1-yl)-1,4-dihydro-4-oxoquinoline-3-carboxylic acid] were, in that order, 0.39 µg/mL (≈ 1.07 µM), 3.13 µg/mL (≈ 8.57 µM) and 0.2 µg/mL (≈ 0.547 µM).
Regarding `CNC1CCN(c2c(F)c(N)c3c(=O)c(C(=O)O)cn(C4COC4)c3c2F)C1` (stereo not drawn) [Compound 50], the MIC in experiment [1] was determined as 0.39 µg/mL (≈ 0.989 µM); in experiment [2] it was 1.56 µg/mL (≈ 3.96 µM); in experiment [3], 0.78 µg/mL (≈ 1.98 µM).
The like results for `CC1CN(c2c(F)cc3c(=O)c(C(=O)O)cn(C4COC4)c3c2F)CCN1` (stereo not drawn) [Compound 13] were, in that order, 0.2 µg/mL (≈ 0.527 µM), 1.56 µg/mL (≈ 4.11 µM) and 1.56 µg/mL (≈ 4.11 µM).
The like results for `CC(=N)N1CCN(c2c(F)c(N)c3c(=O)c(C(=O)O)cn(C4COC4)c3c2F)CC1` [Compound 109] were, in that order, 0.39 µg/mL (≈ 0.925 µM), 3.13 µg/mL (≈ 7.43 µM) and 0.78 µg/mL (≈ 1.85 µM).
In the case of `COc1c(N2CCC(N(C)C)C2)c(F)cc2c(=O)c(C(=O)O)cn(C3COC3)c12` (stereo not drawn) [Compound 77], the MIC in experiment [1] was 1.56 µg/mL (≈ 3.85 µM); in experiment [2], 12.5 µg/mL (≈ 30.8 µM); in experiment [3], 1.56 µg/mL (≈ 3.85 µM).
